This test addresses T1, Human complement C1s enzyme (Homo sapiens, UniProt P09871).
T1 sequence (P09871 438-688 limits assumed): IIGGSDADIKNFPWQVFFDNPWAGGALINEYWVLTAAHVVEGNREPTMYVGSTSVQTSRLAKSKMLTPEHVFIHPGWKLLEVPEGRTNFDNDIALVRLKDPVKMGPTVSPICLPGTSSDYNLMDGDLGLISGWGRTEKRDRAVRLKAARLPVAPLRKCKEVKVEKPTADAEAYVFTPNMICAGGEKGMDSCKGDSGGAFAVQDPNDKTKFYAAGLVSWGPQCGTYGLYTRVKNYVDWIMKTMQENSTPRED
T1 sequence (P09871 16-437 partner limits assumed): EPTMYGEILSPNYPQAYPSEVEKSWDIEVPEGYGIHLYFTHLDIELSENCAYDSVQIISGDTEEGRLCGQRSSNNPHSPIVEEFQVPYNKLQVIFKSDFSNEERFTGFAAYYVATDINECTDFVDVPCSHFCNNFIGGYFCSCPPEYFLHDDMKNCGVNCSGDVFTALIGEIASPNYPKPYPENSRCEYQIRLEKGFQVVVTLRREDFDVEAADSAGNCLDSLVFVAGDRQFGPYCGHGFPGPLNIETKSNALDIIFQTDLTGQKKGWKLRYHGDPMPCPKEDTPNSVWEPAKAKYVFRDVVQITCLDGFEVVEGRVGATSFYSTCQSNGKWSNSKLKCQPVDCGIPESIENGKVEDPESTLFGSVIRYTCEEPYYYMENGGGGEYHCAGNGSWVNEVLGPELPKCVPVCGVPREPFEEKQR
Put plainly: Human C1s enzyme assay. The format is biochemical. The conditions noted are these: human complement C1s enzyme 1.16 nM, substrate Z-L-Lys-SBzl 100 μM, 5 min preincubation; read-out: IC50 (Stars), C1s Inhibiting Activity. In outline:
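Serum-purified human C1s (1.16 nM final) preincubated 5 min at room temperature with compound in 50 mM Tris, 1 M NaCl, pH 7.5. Z-L-Lys-SBzl and DTNB added at 100 μM each; A405 followed every 30 s for 30 min, and IC50 obtained by nonlinear regression of reaction rates.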

In patent US20260062443A1 (ALEXION PHARMACEUTICALS, INC., priority 2022, published 2026) one finds IC50 data, which are given here for ten compounds.

Take `C[C@@H](NC(=O)[C@@H]1C[C@@H](c2ncco2)CN1C(=O)CNC(=O)c1ccc2c(c1)Oc1ccccc1S2)c1cc2cnccc2[nH]1` [Compound 177, (2S,4R)-N-((R)-1-(1H-pyrrolo[3,2-c]pyridin-2-yl)ethyl)-4-(oxazol-2-yl)-1-((phenoxathiine-3-carbonyl)glycyl)pyrrolidine-2-carboxamide]: the IC50 was less than 100 nM.
For the compound `C[C@@H](NC(=O)[C@@H]1C[C@H](c2ncco2)CN1C(=O)CNC(=O)c1ccc2c(c1)Oc1ccccc1S2)c1cc2cnccc2[nH]1` [Compound 178, (2S,4S)-N-((R)-1-(1H-pyrrolo[3,2-c]pyridin-2-yl)ethyl)-4-(oxazol-2-yl)-1-((phenoxathiine-3-carbonyl)glycyl)pyrrolidine-2-carboxamide], the IC50 is less than 100 nM.
The figure for `O=C(NCC(=O)N1CC2(C[C@H]1C(=O)NCc1cc3cnccc3[nH]1)OCCO2)c1ccc2c(c1)sc1ccccc12` [Compound 179, (S)-N-((1H-pyrrolo[3,2-c]pyridin-2-yl)methyl)-7-((dibenzo[b,d]thiophene-3-carbonyl)glycyl)-1,4-dioxa-7-azaspiro[4.4]nonane-8-carboxamide] is less than 100 nM; for `C[C@@]12C[C@@H]1N(C(=O)CNC(=O)c1ccc3c(c1)Oc1ccccc1S3)[C@H](C(=O)NCc1ccc3nc(N)[nH]c3c1)C2` [Compound 181, (1S,3S,5S)-N-((2-amino-1H-benzo[d]imidazol-6-yl)methyl)-5-methyl-2-((phenoxathiine-3-carbonyl)glycyl)-2-azabicyclo[3.1.0]hexane-3-carboxamide] it is less than 100 nM.
The figure for `C[C@@H](NC(=O)[C@@H]1CC(Cn2ccnc2)CN1C(=O)CNC(=O)c1ccc2c(c1)Oc1ccccc1S2)c1cc2cnccc2[nH]1` (stereo partly drawn) [Compound 184, (2S)-4-((1H-imidazol-1-yl)methyl)-N-((R)-1-(1H-pyrrolo[3,2-c]pyridin-2-yl)ethyl)-1-((phenoxathiine-3-carbonyl)glycyl)pyrrolidine-2-carboxamide] is less than 100 nM.
On to `C[C@@H](NC(=O)[C@@H]1C[C@]2(Cc3nccs3)C[C@@H]2N1C(=O)CNC(=O)c1ccc2c(c1)Oc1ccccc1S2)c1cc2cnccc2[nH]1` [Compound 186, (1S,3S,5S)-N-((R)-1-(1H-pyrrolo[3,2-c]pyridin-2-yl)ethyl)-2-((phenoxathiine-3-carbonyl)glycyl)-5-(thiazol-2-ylmethyl)-2-azabicyclo[3.1.0]hexane-3-carboxamide], for which the IC50 was less than 100 nM.
The figure for `O=C(NCC(=O)N1C[C@@](F)(CF)C[C@H]1C(=O)NCc1cc2cnccc2[nH]1)c1ccc2oc3ccccc3c2c1` [Compound 187, (2S,4R)-N-((1H-pyrrolo[3,2-c]pyridin-2-yl)methyl)-1-((dibenzo[b,d]furan-2-carbonyl)glycyl)-4-fluoro-4-(fluoromethyl)pyrrolidine-2-carboxamide] is less than 100 nM.
`O=C(NCC(=O)N1CCC[C@H]1C(=O)NCc1cc2cnccc2[nH]1)c1ccc2c(c1)Oc1ccccc1S2` [Compound 188, (S)-N-((1H-pyrrolo[3,2-c]pyridin-2-yl)methyl)-1-((phenoxathiine-3-carbonyl)glycyl)pyrrolidine-2-carboxamide]: the IC50 is less than 100 nM.
In the case of `C[C@@H](NC(=O)[C@@H]1C[C@@H](OC(F)F)CN1C(=O)CNC(=O)c1ccc(Oc2ccccc2)cc1)c1cc(B(O)O)cs1` [Compound 189, (5-((R)-1-((2S,4R)-4-(difluoromethoxy)-1-((4-phenoxybenzoyl)glycyl)pyrrolidine-2-carboxamido)ethyl)thiophen-3-yl)boronic acid], the IC50 is more than 1000 nM.
The figure for `C[C@@H](NC(=O)[C@@H]1CC2(CC2)CN1C(=O)CNC(=O)c1ccc2c(c1)Oc1ccccc1S2)c1cc2cnccc2[nH]1` [Compound 190, (S)-N-((R)-1-(1H-pyrrolo[3,2-c]pyridin-2-yl)ethyl)-5-((phenoxathiine-3-carbonyl)glycyl)-5-azaspiro[2.4]heptane-6-carboxamide] is less than 100 nM.
